Experiments:
Assay type in all cases: cell-based, mouse
3T3 and A20 cells = test: 4-CmC-induced Ca^2+ signal in cells with or without FoxP3 overexpression; details: FoxP3-transfected 3T3 and A20 cells vs non-FoxP3 overexpression group, HBSS without calcium ions, FIG. 24
Experimental: For non-adherent cells, Treg, Tconv and A20 cells were stained with […] fluo-4 AM (Thermo Fisher) for 1 h at 37° C. After washing, the cells were adhered to poly-L-lysine coated (0.1 mg/mL; Sigma-Aldrich) round glass slides mounted in the sandwich home-made chamber at room temperature. After 15 min, excess non-adherent cells were removed by washing with buffer. For adherent cells, NIH-3T3 and Renca cells grown on glass slides were stained with […] fluo-4 AM (Thermo Fisher) for 1 hour at 37° C. The measurement chamber was then placed on an Olympus IX-73 microscope equipped with a 20-fold (numerical aperture: 0.8) or 40-fold (numerical aperture: 1.2) Olympus objective. Unless otherwise stated, Ca^2+ oscillation within 20 min was recorded at intervals of 6 s. […] For the stimulation experiments, Ca^2+ oscillation within 5 min was recorded at intervals of 1 s. […] The emission signal at 468 nm to 550 nm excited by the 488 nm laser was recorded with a charge coupled device camera (ORCA-AG, Hamamatsu). […] The mean fluorescence intensity changes over time in individual cells were analyzed using ImageJ and normalized with fluorescence intensity in the first frame (Fluo-4 F / F0). The peak of Ca^2+ oscillation of the individual cells was shown, and the standard deviation of Ca^2+ fluctuation intensity was calculated as Mean ± SEM. […]

m-calpain = test: Calpain activity by digestion of the calpain substrate CMAC (flow cytometry); details: for calpain activity (digestion rate of CMAC) after Ryr activation: 4-CMC treatment, FIG. 7
Experimental: Wherein calpain activity measurement procedure: To measure calpain activity, 10^5 T cells were incubated in 200 µL of medium containing 20 µM calpain substrate CMAC (t-BOC-Leu-Met, Thermo Fisher) in the dark at room temperature. After 5 min of incubation, the reaction was terminated with 1 % PFA (Biosharp) and the cells were immediately placed on ice. The fluorescent signal emitted from the digested substrate was measured as calpain activity by Fortessa flow cytometer through the Hoechst blue channel. In all experiments, the inhibitor JTV519 was added 30 min prior to the experiments, and activator 4-CmC and CMAC were added at the same time.

DC2.4 cells = test: AFM single cell force spectrum, T-DC adhesion (two-cell system); details: Ryr2 blocked in Tconv; intensities even stronger than that of Treg, FIG. 14
Experimental: The atomic force microscope-based single cell force spectrum procedures were performed using JPK CellHesion device as described above (see “Alum interaction with dendritic cell membrane lipids is essential for its adjuvanticity” (Flach et al., Nat Med 17, 479-487, 2011) and “Strong adhesion by regulatory T cells induces dendritic cell cytoskeletal polarization and contact-dependent lethargy” (Chen et al., The Journal of experimental medicine, 2017)). Briefly, to measure T-DC adhesion in a two-cell system, DC2.4 cells were cultured on untreated glass plates. T cells were treated with 200 U/mL human IL-2 overnight. The glass plates were moved into an AFM compatible chamber and mounted on a machine table. Clean cantilevers were coated with CellTak (BD), and then stick an individual T cell on thefront end of the cantilever. The AFM cantilever carrying the individual T cell was lowered to allow T cell contact with a single DC and to interact for 15 s, and then moved upward until the two cells were completely separated. A force spectrum curve was obtained. The process was then repeated. […] Treg/Tconv contact-mediated inhibition of OT-II-DC adhesion was analyzed. […] For each SCFS experiment, a T-DC pair was used to generate force readings for each up-down cycle during a period of several minutes. […]

Row | SMILES | Ca^2+ signal driven by 4-CmC (3T3 and A20 cells) | calpain activity (digestion rate of CMAC) after Ryr activation (m-calpain; Tconv cells) | calpain activity (digestion rate of CMAC) after Ryr activation (m-calpain; Treg cells) | contact of treated Tconv with dendritic cells (adhesion) (DC2.4 cells) | digestion of m-calpain substrate after JTV519 treatment (m-calpain; Tconv, inhibitor added 30 min prior, FIG. 13)
1 | Cc1cc(O)ccc1Cl [4-CmC] | drives much less Ca^2+ signal | completely able to induce calpain activity | not sensitive | – | –
2 | COc1ccc2c(c1)CN(C(=O)CCN1CCC(Cc3ccccc3)CC1)CCS2 [JTV519] | – | – | – | induced strong contact with dendritic cells | digestion of low m-calpain substrate
